# Laboratory results as given in ChEMBL document CHEMBL1201862, “PubChem BioAssay data set” (2004).
# Calls of active or inactive are those of the source.
# Experiments:
# [1] = biological target: T1, Streptokinase A (Streptococcus pyogenes serotype M1, UniProt P10520); assay: viability-normalized secreted streptokinase activity reduction – plasminogen activation absorbance, OD405, dose response (AID 1914); assay type: functional, Streptococcus pyogenes M1 GAS;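 note: secreted streptokinase activity via plasminogen activation per viability signal from cell pellet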
# T1 sequence (P10520 whole entry): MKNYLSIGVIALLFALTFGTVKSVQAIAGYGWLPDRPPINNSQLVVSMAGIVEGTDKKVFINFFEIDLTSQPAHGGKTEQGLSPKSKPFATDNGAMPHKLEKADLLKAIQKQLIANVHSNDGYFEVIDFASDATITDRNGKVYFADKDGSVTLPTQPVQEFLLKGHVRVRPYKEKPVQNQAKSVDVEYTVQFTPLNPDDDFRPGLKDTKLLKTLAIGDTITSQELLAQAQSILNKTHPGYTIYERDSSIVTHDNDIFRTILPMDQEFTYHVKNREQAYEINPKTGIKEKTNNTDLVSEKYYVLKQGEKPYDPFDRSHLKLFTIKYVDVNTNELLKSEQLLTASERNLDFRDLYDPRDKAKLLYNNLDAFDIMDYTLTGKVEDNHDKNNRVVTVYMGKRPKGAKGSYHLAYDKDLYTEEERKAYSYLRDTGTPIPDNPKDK
# [2] = test system: Streptococcus sp. 'group A'; assay: Streptococcus pyogenes SK(-)GAS viability under kanamycin – luminescence, BacTiterGlo, confirmation, counter-screen for streptokinase expression inhibitor project, dose response (AID 1900); assay type: functional, organism-based
# [3] = biological target: T2, Estrogen receptor (Homo sapiens, UniProt P03372); assay: ERα coactivator recruitment enhancers – biochemical, TR-FRET, ERα LBD, dose response (AID 737)
# T2 sequence (P03372 whole entry): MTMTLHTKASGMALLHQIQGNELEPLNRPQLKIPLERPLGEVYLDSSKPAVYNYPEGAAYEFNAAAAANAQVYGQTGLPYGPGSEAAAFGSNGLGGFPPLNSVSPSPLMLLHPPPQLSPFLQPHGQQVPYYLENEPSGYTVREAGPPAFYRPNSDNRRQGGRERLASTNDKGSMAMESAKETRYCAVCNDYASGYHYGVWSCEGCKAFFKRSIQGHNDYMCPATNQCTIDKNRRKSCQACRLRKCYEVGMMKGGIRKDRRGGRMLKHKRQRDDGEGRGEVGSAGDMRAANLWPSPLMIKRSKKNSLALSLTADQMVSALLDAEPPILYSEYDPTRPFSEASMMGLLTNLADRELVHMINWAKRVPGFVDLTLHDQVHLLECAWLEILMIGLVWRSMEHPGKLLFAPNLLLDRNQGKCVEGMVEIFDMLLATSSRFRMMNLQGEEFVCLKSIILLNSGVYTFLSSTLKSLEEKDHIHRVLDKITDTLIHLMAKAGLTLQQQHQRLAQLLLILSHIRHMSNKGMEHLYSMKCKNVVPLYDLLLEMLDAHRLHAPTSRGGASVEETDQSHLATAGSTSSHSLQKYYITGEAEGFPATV
# [4] = test system: Streptococcus; assay: GAS UMAA2166 growth inhibition – luminescence, BacTiterGlo, counter-screen for streptokinase expression inhibitor project, dose response (AID 1915); assay type: functional, organism-based;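 note: potency for reduction of bacterial viability or growth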
# [5] = A Cell Based Secondary Assay To Explore Cytotoxicity of Compounds that Sensitize Mycobacterium Tuberculosis to Beta-Lactam Antibiotics.; assay type: functional
# [6] = biological target: Cytochrome P450 2D6 (Homo sapiens, UniProt P10635); assay: qHTS Assay for Inhibitors and Substrates of Cytochrome P450 2D6. [Related pubchem assays: 410 ]; assay type: ADME; conditions: read-out: Potency
# [7] = biological target: Cytochrome P450 3A4 (Homo sapiens, UniProt P08684); conditions: Potency;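 note: confirmatory qHTS run detecting inhibitors and substrates of CYP3A4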
# [8] = glucagon-like peptide-1 release potency in STC-1, concentration-response, half-maximal inhibitory concentration in the STC-1 line (AID 1117345); assay type: functional, cell-based
# [9] = rise of 4N DNA cells, HeLa – IC50, dose response (AID 1117351); assay type: functional, cell-based
# [10] = biological target: Serine/threonine-protein phosphatase (Homo sapiens, UniProt Q9BPW0); assay: Counterscreen for inhibitors of PP1: fluorescence-based biochemical high throughput dose response assay to identify inhibitors of Protein Phosphatase 5 (PP5). [Related pubchem assays: 2034 (Summary (PP5 inhibitors)), 1987 (PP5 inhibitors in singlate), 2235 (PP1 inhibitors in singlate)]
# [11] = rise of 2N DNA cells, HeLa – IC50, dose response (AID 1117349); assay type: functional, cell-based
# [12] = Potency on glucagon-like peptide 1 release, dose-response in NCI-H716 cell line, half maximal inhibitory concentration (AID 1117344); assay type: functional, cell-based
# [13] = alpha-synuclein stem-loop translation blockers – luminescence, H4 neuroglioblastoma cells, dose confirmation, confirmation (AID 2454); assay type: functional, cell-based;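 note: H4 neuroglioblastoma cells carrying an alpha-synuclein 5'UTR luciferase reporter; potency for inhibition of the luciferase signal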
# [14] = luciferase reporter signal reduction – luminescence, H4-C neuroglioblastoma cells, dose response (AID 2458); assay type: functional, cell-based;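 note: H4 neuroglioblastoma cells stably carrying a luciferase reporter gene fusion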
# [15] = alpha-synuclein stem-loop luciferase translation blockers – H4 neuroglioma cells, luminescence, confirmation (AID 1988); assay type: functional, cell-based
# [16] = cells; assay type: functional, cell-based
# [17] = Luminescence Cell-Based Dose Response HTS to Identify Inhibitors of 5'UTR Stem-Loop Driven Prion Protein mRNA Translation in H4 Neuroglioblastoma Cells. [Related pubchem assays: 1827 (Project Summary), 1813 (Primary HTS)]; assay type: functional
# [18] = luciferase reporter signal suppression in cells – H4 neuroglioma cells, luminescence, dose response (AID 1990); assay type: functional, cell-based
# [19] = HEK-293T cell viability reduction – luminescence, B-cell screen hits, cytotoxicity control for BCR NF-kB inhibitor project, dose response (AID 489021); assay type: functional, cell-based;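 note: HEK-293T cells carrying an NF-kB luciferase reporter; cells exposed to compound for about 14 hours before viability readout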
# [20] = Luminescence Cell-Based Dose-Confimation HTS to Identify Inhibitors of 5'UTR Stem-Loop Driven Alpha-Synuclein mRNA Translation in H4 Neuroglioblastoma Cells. [Related pubchem assays: 1827 (Project Summary), 1813 (Primary HTS)]; assay type: functional
# [21] = biological target: Vasopressin V1a receptor (Homo sapiens, UniProt P37288); assay: Fluorescence-based cell-based high throughput dose response screening assay for agonists of the vasopressin 1 receptor (V1R).; assay type: functional
# [22] = biological target: Oxytocin receptor (Homo sapiens, UniProt P30559); assay: Counterscreen for vasopressin 1 receptor (V1R) agonists: Fluorescence-based cell-based high throughput dose response assay for agonists of the Oxytocin Receptor (OXTR). [Related pubchem assays: 2435 (Primary screen (OXTR agonists in singlicate)), 434964 (Confirmation screen (V1R agonists in triplicate)), 434969 (Counterscreen (OXTR agonists in …; assay type: functional
# [23] = biological target: Lysosomal acid glucosylceramidase (Homo sapiens, UniProt P04062); assay: Dose response cell-based high throughput screening assay to identify enhancers of beta-glucosidase activity. [Related pubchem assays: 784 ]; assay type: functional
# Lysosomal acid glucosylceramidase, sequence (P04062 whole entry): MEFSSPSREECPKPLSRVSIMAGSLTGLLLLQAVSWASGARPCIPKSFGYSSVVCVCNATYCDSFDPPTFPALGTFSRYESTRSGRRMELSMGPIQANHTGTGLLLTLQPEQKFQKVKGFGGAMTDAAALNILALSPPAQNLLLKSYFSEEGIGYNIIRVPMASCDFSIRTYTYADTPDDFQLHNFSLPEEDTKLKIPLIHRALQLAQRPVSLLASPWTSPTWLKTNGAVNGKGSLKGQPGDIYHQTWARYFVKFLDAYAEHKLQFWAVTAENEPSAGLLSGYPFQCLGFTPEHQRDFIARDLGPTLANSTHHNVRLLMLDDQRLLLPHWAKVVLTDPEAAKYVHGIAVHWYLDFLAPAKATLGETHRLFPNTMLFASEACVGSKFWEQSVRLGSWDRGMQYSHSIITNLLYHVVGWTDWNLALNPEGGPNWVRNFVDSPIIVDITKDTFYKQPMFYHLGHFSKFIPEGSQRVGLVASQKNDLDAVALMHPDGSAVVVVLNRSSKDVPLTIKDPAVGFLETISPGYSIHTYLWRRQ
# Vasopressin V1a receptor, sequence (P37288 whole entry): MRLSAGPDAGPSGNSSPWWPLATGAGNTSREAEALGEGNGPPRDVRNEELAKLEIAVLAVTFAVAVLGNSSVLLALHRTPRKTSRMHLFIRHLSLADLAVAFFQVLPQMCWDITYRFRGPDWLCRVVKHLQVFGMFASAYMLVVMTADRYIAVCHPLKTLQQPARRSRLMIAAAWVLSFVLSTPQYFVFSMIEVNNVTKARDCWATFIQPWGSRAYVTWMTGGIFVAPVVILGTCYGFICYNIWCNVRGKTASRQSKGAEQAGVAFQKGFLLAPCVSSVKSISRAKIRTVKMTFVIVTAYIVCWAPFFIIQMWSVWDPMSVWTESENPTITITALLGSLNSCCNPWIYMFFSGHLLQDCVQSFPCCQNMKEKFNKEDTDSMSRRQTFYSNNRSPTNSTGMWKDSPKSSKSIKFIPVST
# Serine/threonine-protein phosphatase, sequence (Q9BPW0 whole entry): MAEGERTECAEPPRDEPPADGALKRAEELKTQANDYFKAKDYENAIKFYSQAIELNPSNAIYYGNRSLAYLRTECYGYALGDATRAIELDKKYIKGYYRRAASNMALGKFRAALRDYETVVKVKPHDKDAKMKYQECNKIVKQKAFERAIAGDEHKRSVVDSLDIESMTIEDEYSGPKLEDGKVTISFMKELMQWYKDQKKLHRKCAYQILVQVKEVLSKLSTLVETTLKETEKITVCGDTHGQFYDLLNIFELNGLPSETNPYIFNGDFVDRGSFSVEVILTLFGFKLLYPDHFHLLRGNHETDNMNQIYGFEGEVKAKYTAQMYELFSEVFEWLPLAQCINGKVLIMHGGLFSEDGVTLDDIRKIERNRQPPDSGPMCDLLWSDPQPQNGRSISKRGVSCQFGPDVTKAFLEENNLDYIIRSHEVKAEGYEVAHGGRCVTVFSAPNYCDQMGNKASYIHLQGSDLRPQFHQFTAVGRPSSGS
# Oxytocin receptor, sequence (P30559 whole entry): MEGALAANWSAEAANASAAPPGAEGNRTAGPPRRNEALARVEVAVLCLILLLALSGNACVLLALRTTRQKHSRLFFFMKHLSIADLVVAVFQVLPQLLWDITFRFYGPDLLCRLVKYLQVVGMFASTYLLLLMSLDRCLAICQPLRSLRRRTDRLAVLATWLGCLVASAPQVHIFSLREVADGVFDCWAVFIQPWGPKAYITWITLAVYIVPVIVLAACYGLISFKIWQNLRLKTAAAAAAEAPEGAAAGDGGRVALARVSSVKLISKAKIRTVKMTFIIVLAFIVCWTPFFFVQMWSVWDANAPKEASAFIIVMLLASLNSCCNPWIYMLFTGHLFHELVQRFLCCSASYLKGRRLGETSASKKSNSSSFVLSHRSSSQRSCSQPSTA
# Cytochrome P450 2D6, sequence (P10635 whole entry): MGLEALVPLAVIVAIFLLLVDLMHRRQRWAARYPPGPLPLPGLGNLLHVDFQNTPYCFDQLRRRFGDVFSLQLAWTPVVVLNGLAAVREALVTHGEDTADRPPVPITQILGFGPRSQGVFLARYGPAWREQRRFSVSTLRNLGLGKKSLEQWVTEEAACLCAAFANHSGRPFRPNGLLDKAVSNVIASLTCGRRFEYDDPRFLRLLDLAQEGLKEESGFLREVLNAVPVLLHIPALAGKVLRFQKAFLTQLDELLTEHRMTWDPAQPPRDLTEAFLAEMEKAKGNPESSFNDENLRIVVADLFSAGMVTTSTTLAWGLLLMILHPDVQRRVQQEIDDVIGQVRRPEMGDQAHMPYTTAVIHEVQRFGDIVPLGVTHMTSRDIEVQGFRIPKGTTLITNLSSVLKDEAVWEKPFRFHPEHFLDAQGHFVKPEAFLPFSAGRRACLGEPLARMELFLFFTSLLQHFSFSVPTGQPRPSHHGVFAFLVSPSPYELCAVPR
# Cytochrome P450 3A4, sequence (P08684 whole entry): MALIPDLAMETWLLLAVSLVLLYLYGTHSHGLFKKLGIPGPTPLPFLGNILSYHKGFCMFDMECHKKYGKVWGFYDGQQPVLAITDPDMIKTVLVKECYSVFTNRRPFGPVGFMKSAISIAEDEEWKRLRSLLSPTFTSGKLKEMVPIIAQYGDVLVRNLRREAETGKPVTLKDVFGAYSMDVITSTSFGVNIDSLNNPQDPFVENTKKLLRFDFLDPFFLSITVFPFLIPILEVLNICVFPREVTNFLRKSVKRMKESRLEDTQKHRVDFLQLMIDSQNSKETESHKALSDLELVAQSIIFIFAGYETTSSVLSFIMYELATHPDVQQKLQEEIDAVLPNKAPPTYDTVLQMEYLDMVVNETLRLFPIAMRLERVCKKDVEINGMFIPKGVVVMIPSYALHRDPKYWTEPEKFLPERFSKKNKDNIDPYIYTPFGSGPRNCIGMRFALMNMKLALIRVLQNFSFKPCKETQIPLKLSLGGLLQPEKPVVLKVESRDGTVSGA
smiles,measurement,setting,value
Cn1nnnc1SCC(=O)Nc1nc(-c2ccccc2)c(-c2ccccc2)o1,EC50,[1],> 150 µM (not active)
same,EC50,[2],12.7 µM (active)
same,EC50,[3],22.2 µM (active)
same,EC50,[4],26 µM (active)
COC(=O)c1c(C)n(-c2ccc(C)cc2)c2ccc(O)cc12,CC50,[5],> 40 µM (active)
CC12C=C(/C=C/c3ccc(C(F)(F)F)cc3)C(C)(C1)C(c1ccc(C(F)(F)F)cc1)CC2=O (stereo not drawn),AC50,[6],6.31 µM (inconclusive)
same,AC50,[7],3.98 µM (inconclusive)
C[C@@]12C(=O)OC(=O)[C@]1(C)C1CCC2O1,IC50,[8],13.7 µM (inactive)
same,IC50,[9],> 10 µM (inactive)
same,IC50,[10],0.239 µM (active)
same,IC50,[11],> 10 µM (inactive)
same,IC50,[12],6.68 µM (inactive)
Nc1ccc(-c2cc3ccccc3oc2=O)cc1,EC50,[13],0.156 µM (active)
same,EC50,[14],0.125 µM (active)
same,EC50,[15],< 0.1 µM (active)
same,EC50,[16],0.215 µM (active)
same,EC50,[17],< 0.1 µM (active)
same,EC50,[18],< 0.1 µM (active)
same,IC50,[19],> 80 µM (inactive)
COc1ccc(C)cc1-n1nnnc1SCc1nc(N)nc(N(C)C)n1,EC50,[20],20.5 µM (active)
CC(NC(=O)Nc1ccc([N+](=O)[O-])cc1)C(c1ccccc1)N1CCOCC1 (stereo not drawn),EC50,[21],4.67 µM (active)
same,EC50,[22],> 29.9 µM (not active)
COCCCNC(=O)Cn1cc(C(=O)C2CC2)c2ccccc21,EC50,[23],> 50 µM (not active)
